One test relates to EGFR. In words: Immunoblot for p-EGFR after EGF stimulation in HPV[+] and HPV[−] keratinocytes. In kind it is cell-based, human. Conditions: cetuximab 100 μg/mL or PD98059 25 μM; 10 ng/mL EGF in SFM, 5 or 15 minutes; SG3 (HPV16[+]) and NIKS (HPV[−]) cells. The procedure:
(§1) FIG. 5. […] Mock=No EGF. Cell lysates were harvested and subjected to SDS-PAGE and immunoblot for p-EGFR, total EGFR, p-ERK1/2 and GAPDH, a loading control.
(§2) Western blot was performed (FIG. 5) and cell viability determined with MTT assay and clonogenic assays performed as described (FIG. 7) (Meira et al., 2009, Euro J Cancer 45:1265-1273).
(In general: A western blot detects proteins with antibodies after separation by electrophoresis.)

In another test the test system is HPV16 E1^E4 early mRNA. In words: RT-qPCR of HPV16 E1^E4 early mRNA in HPV[+] HFK cells. The class given is cell-based. The note with it: cetuximab 100 μg/mL or PD98059 25 μM, 24-96 hours. On the technique in general: Real-time PCR tracks product formation cycle by cycle.
For test [1], the system named is HPV[+] human keratinocytes. In words: MTT cell viability assay, HPV[+] cells. In kind it is cell-based. Conditions: cetuximab 50, 100, 200 μg/mL; PD98059 12.5, 25, 50 μM; MTT after 72 hours (seven days). As for the experimental part: (§3) FIG. 7. […] The boxes indicate the same concentrations used in the FIG. 3 and FIG. 5. MTT assays were performed to assess cell viability. Error bars represent SEM (N=3).
as §2
(§4) The proliferative capacity of MAPK inhibitor-treated cells compared to untreated cells was measured by MTT assay after 72 hours to determine the surviving fractions (FIG. 7).

Test [2] concerns HPV[−] human keratinocytes. As to the kind of experiment: MTT cell viability assay, HPV[−] cells. The class given is cell-based. Conditions: cetuximab 50, 100, 200 μg/mL; PD98059 12.5, 25, 50 μM; MTT after 72 hours (seven days). As for the experimental part: as §3, §2, §4
For a further test, the system named is HPV16 viral genome. As to the kind of experiment: qPCR of HPV16 LCR (viral genome number) in HPV[+] HFK cells. In kind it is cell-based. Conditions: cetuximab 100 μg/mL or PD98059 25 μM, two to six days after treatment.
The test system of another test is p-ERK1/2. As to the kind of experiment: Immunoblot for p-ERK1/2 (MAPK signaling) after EGF stimulation in HPV[+] and HPV[−] keratinocytes. In kind it is cell-based, human. Conditions: cetuximab 100 μg/mL or PD98059 25 μM; 10 ng/mL EGF in SFM, 5 or 15 minutes; SG3 (HPV16[+]) and NIKS (HPV[−]) cells. As for the experimental part: as §1, §2

Procedure for HPV16 E1^E4 early mRNA: HPV16 E1̂E4 early mRNA levels in response to treatment with EGFR or MAPK inhibitors. […] Total RNA harvested at indicated time points was subjected to RT and then to qPCR for β-actin and HPV16 E1̂E4 quantification. […] Data are the result of two separate experiments.
Total RNA harvested at 24 hours, 48 hours, 72 hours, or 96 hours was subjected to RT and then to qPCR for β-actin and HPV16 E1̂E4 quantification.
(§5) TURBO DNA-free Kit (Ambion) to remove co-purifying viral and cellular DNA. Reverse transcription (RT) of total RNAs (0.2-0.5 μg) was performed using random hexamer primers and ABI reagents (Applied Biosystems). For quantitative PCR (qPCR), 2 μl of each cDNA or total DNA was analyzed in triplicate using the SYBR Green I kit on the iCycler (Bio-Rad Laboratories, Inc., Hercules, Calif.).
Source text for HPV16 viral genome: Response of HPV16 viral genome number to EGFR or MAPK Inhibitors. […] Total DNA harvested at indicated time points was subjected to qPCR for HPV16 LCR quantification. […] Data are the result of 2 separate experiments. (* p<0.05, ** p<0.01).
Total DNA harvested at two days, three days, four days, five days, or six days after treatment was subjected to qPCR (SYBR Green I kit on the BioRad iCycler) for HPV16 LCR quantification. […] Total RNAs were extracted from cells using TRIzol (Invitrogen), and processed with the
as §5

Regarding `COc1cccc(-c2cc(=O)c3ccccc3o2)c1N` [PD98059], the “EGFR activation (p-EGFR)” value with EGFR is “did not affect EGFR activation”. For the same compound, in the test on HPV16 E1^E4 early mRNA, the “HPV16 E1^E4 transcript levels” value is “decrease is statistically significant after 48 hours of treatment”. In addition, the “viability of HPV[+] cells (MTT)” value in test [1] is recorded as “dose-dependent decrease in viability”. Also, the “viability of HPV[−] cells (MTT)” value in test [2] is “dose-dependent decrease in viability”. The “HPV16 genome levels (LCR qPCR) compared to mock treated” value in the test on HPV16 viral genome is given as “statistically significant decrease in HPV16 genome levels”. In the test with p-ERK1/2, the “downstream / MAPK signaling (p-ERK1/2)” value is listed as “blocked MAPK signaling”.
